Experimental data from patent US7223749B2, “Bicyclic heterocycles, pharmaceutical compositions containing these compounds, their use and processes for preparing them” (Boehringer Ingelheim International GmbH, priority 2003, dated 2007).

Target: T1, human EGF-receptor kinase (Homo sapiens, UniProt P00533)
T1 construct: GST; made in house; host or cells: Sf9 insect cells (Baculovirus)
Test: Inhibition of human EGF-receptor kinase (cytoplasmatic tyrosine kinase domain, GST fusion protein, pEY substrate, ELISA readout)
Type: biochemical
Conditions: cytoplasmatic tyrosine kinase domain (Met 664 to Ala 1186) as GST fusion protein; poly(EY)/bio-pEY substrate; 30 minutes at ambient temperature
Method: The inhibition of human EGF-receptor kinase was determined using the cytoplasmatic tyrosine kinase domain (methionine 664 to alanine 1186, based on the sequence published in Nature 309 (1984), 418). To do this, the protein was expressed in Sf9 insect cells as a GST fusion protein using the Baculovirus expression system.
The enzyme activity was measured in the presence or absence of the test compounds in serial dilutions. The polymer pEY (4:1) produced by SIGMA was used as the substrate. Biotinylated pEY (bio-pEY) was added as the tracer substrate. Every 100 μl of reaction solution contained 10 μl of the inhibitor in 50% DMSO, 20 μl of the substrate solution (200 mM HEPES pH 7.4, 50 mM magnesium acetate, 2.5 mg/ml of poly(EY), 5 μg/ml of bio-pEY) and 20 μl of enzyme preparation. The enzyme reaction was started by the addition of 50 μl of a 100 μM ATP solution in 10 mM magnesium chloride. The dilution of the enzyme preparation was adjusted so that the incorporation of phosphate into the bio-pEY was linear in terms of time and quantity of enzyme. […]
The enzyme assays were carried out at ambient temperature over a period of 30 minutes and were ended by the addition of 50 μl of a stopping solution (250 mM EDTA in 20 mM HEPES pH 7.4). […] The extinction was measured at OD450 nm with an ELISA reader. All data points were measured three times. […]

T1 sequence (P00533 688-1210): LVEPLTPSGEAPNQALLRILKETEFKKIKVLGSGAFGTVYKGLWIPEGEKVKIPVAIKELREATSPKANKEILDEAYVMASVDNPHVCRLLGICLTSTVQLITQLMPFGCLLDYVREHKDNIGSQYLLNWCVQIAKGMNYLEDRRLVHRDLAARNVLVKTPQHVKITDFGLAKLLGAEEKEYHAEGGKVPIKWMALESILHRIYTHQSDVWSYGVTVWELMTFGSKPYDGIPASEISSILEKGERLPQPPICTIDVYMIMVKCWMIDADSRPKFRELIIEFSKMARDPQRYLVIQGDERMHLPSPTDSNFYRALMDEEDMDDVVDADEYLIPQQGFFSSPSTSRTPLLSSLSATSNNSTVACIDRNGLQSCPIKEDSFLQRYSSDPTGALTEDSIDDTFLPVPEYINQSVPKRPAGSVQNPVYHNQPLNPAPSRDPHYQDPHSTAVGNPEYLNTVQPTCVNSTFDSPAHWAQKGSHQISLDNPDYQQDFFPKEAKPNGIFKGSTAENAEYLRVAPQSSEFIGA

IC50: 1.5 nM
Compound: O=C(/C=C/CN1CCCOCC1)Nc1cc2c(Nc3ccc(F)c(Cl)c3)ncnc2cc1O[C@H]1CCOC1 [Example 1, 4-[(3-chloro-4-fluoro-phenyl)amino]-6-{[4-(homomorpholin-4-yl)-1-oxo-2-buten-1-yl]amino}-7-[(S)-(tetrahydrofuran-3-yl)oxy]-quinazoline]
